# Measured values taken from patent US10028992B2, “Methods of treating muscular dystrophy” (BOARD OF REGENTS OF THE NEVADA SYSTEM OF HIGHER EDUCATION …, priority 2012, dated 2018).
# What was measured:
# α7 integrin promoter = assay: muscle cell-based assay: α7βgal+/− myoblasts/myotubes, LacZ reporter, β-galactosidase cleavage of FDG; set-up: species or system mouse; Results in α7+/− β-galactosidase assay: scale not given here; conditions: for EC50: read-out: EC50; for Results in a α7+/− β-galactosidase assay, Myotubes, 0.5 uM: compound at 0.5 uM; for Results in a α7+/− β-galactosidase assay, Myotubes, 1 uM: compound at 1 uM; for Results in a α7+/− β-galactosidase assay, Myotubes, 5 uM: compound at 5 uM; for Results in a α7+/− β-galactosidase assay, Myotubes, 10 uM: compound at 10 uM; for Results in a α7+/− β-galactosidase assay, Myotubes, 20 uM: compound at 20 uM; for Results in a α7+/− β-galactosidase assay, Myotubes, 40 uM: compound at 40 uM; for Results in α7+/− β-galactosidase assay: Myoblasts; for AC50 / Fit HillSlope / Fit Zero Activity [%] / Fit Curve Class: Table 12; for AC50: log of AC50, given with negative sign, unit of AC50 not given, read-out: Fit Log AC50 (converted); for Fit HillSlope: curve fit; for Fit Zero Activity [%]: fitted activity at zero concentration; for Fit Curve Class: key not given; for Score: Table 12 Compound data, concentration-response curve fit
# Method in brief: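 Primary α7βgal+/− mouse myoblasts (LacZ knocked into α7 integrin exon 1, promoter retained), differentiated; promoter activity read as β-galactosidase conversion of non-fluorescent FDG to fluorescein. Hits followed by dose-response, western analysis and myostatin counterscreen.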
# α7 integrin = assay: western analysis of α7 integrin in DMD myoblasts/myotubes; type: cell-based, human; conditions: 2,2-dipyridyl 31.25 μM, deferoxamine 5 and 10 μM, 132 hrs
# Procedure: FIGS. 13A-13D illustrate western blot studies in which protein extracts from C2C12 (A, B) and DMD (C, D) myoblasts were first treated with PBS or 100 nM LAM-111 and then subjected to western analysis of the α7B integrin and the Cox-1 loading standard. *=p<0.05.
# Protein was extracted from the cells and subjected to western blotting using antibodies against α7 integrin. α-tubulin was used as a loading control.
# It is contemplated that the identified parent scaffolds (Tables 8 and 9) increase α7 integrin expression through a similar mechanism.
structure (smiles),measurement,setting,value
"c1ccc(-c2ccccn2)nc1 [2,2-Dipyridyl, 2,2-dipyridyl, reference compound]",Optimal Concentration,α7 integrin promoter,125 μm
same,EC50,α7 integrin promoter,62.5 µM
same,α7 integrin protein,α7 integrin,increased
"CC(C)CCC[C@@H](C)[C@H]1CC[C@H]2[C@@H]3CC(=O)[C@H]4C[C@@H](O)CC[C@]4(C)[C@H]3CC[C@]12C [5α-cholestan-3β-ol-6-one, reference compound]",EC100,α7 integrin promoter,20 µM
same,Optimal Concentration,α7 integrin promoter,20 μm
same,EC50,α7 integrin promoter,6 µM
same,α7 integrin protein,α7 integrin,increased
O=C(N[C@@H](Cc1c[nH]c2ccccc12)C(=O)O)C1CCN(S(=O)(=O)c2cccs2)CC1 [drawing 414],"Results in a α7+/− β-galactosidase assay, Myotubes, 0.5 uM",α7 integrin promoter,0.08394
same,"Results in a α7+/− β-galactosidase assay, Myotubes, 1 uM",α7 integrin promoter,0.03833
same,"Results in a α7+/− β-galactosidase assay, Myotubes, 5 uM",α7 integrin promoter,0.03594
same,"Results in a α7+/− β-galactosidase assay, Myotubes, 10 uM",α7 integrin promoter,−0.09429
same,"Results in a α7+/− β-galactosidase assay, Myotubes, 20 uM",α7 integrin promoter,0.01148
same,"Results in a α7+/− β-galactosidase assay, Myotubes, 40 uM",α7 integrin promoter,−0.09282
O=C1Nc2ccccc2/C1=C\c1cccn1-c1ccc(OC(F)(F)F)cc1 [drawing 653],Results in α7+/− β-galactosidase assay,α7 integrin promoter; 0.5 uM,−0.1201
same,Results in α7+/− β-galactosidase assay,α7 integrin promoter; 1 uM,0.155
same,Results in α7+/− β-galactosidase assay,α7 integrin promoter; 5 uM,0.2721
same,Results in α7+/− β-galactosidase assay,α7 integrin promoter; 10 uM,0.07821
same,Results in α7+/− β-galactosidase assay,α7 integrin promoter; 20 uM,0.05267
same,Results in α7+/− β-galactosidase assay,α7 integrin promoter; 40 uM,−0.1116
COc1ccc(C(=O)/C=C2\C(=O)Nc3ccccc32)cc1 [drawing 569],Results in α7+/− β-galactosidase assay,α7 integrin promoter; 0.5 uM,0.002308
same,Results in α7+/− β-galactosidase assay,α7 integrin promoter; 1 uM,−0.1094
same,Results in α7+/− β-galactosidase assay,α7 integrin promoter; 5 uM,−0.5146
same,Results in α7+/− β-galactosidase assay,α7 integrin promoter; 10 uM,−0.6859
same,Results in α7+/− β-galactosidase assay,α7 integrin promoter; 20 uM,−0.703
same,Results in α7+/− β-galactosidase assay,α7 integrin promoter; 40 uM,−0.8556
O=C(NC1CCCC1)c1ccc(CS(=O)(=O)Cc2ccccc2F)o1 [Compound 7],AC50,α7 integrin promoter; Mus musculus,4.47 µM
same,Emax,"α7 integrin promoter; Mus musculus, read-out: Max Response [%]",105%
same,Fit HillSlope,α7 integrin promoter,1.6924
same,Fit Zero Activity [%],α7 integrin promoter,12.5%
same,Fit Curve Class,α7 integrin promoter,1.1
same,Score,α7 integrin promoter,85
CC(C)(C)c1csc(NC(=O)c2cccnc2)n1 [drawing 455],"Results in a α7+/− β-galactosidase assay, Myotubes, 0.5 uM",α7 integrin promoter,−0.1018
same,"Results in a α7+/− β-galactosidase assay, Myotubes, 1 uM",α7 integrin promoter,−0.04907
same,"Results in a α7+/− β-galactosidase assay, Myotubes, 5 uM",α7 integrin promoter,0.01472
same,"Results in a α7+/− β-galactosidase assay, Myotubes, 10 uM",α7 integrin promoter,0.1276
same,"Results in a α7+/− β-galactosidase assay, Myotubes, 20 uM",α7 integrin promoter,−0.2798
same,"Results in a α7+/− β-galactosidase assay, Myotubes, 40 uM",α7 integrin promoter,−0.144
O=C(COC(=O)c1cc2ccccc2oc1=O)Nc1ccc(F)cc1F [Compound 60],AC50,α7 integrin promoter; Mus musculus,4.47 µM
same,Fit HillSlope,α7 integrin promoter,1.7529
same,Fit Zero Activity [%],α7 integrin promoter,−12.5146%
same,Fit Curve Class,α7 integrin promoter,2.1
same,Score,α7 integrin promoter,45
COc1ccc(CNC(=O)C2CCCN(S(=O)(=O)c3c(C)noc3/C=C/N(C)C)C2)cc1 (stereo not drawn) [drawing 579],Results in α7+/− β-galactosidase assay,α7 integrin promoter; 0.5 uM,−0.00404
same,Results in α7+/− β-galactosidase assay,α7 integrin promoter; 1 uM,0.03462
same,Results in α7+/− β-galactosidase assay,α7 integrin promoter; 5 uM,−0.04768
same,Results in α7+/− β-galactosidase assay,α7 integrin promoter; 10 uM,−0.2043
same,Results in α7+/− β-galactosidase assay,α7 integrin promoter; 20 uM,−0.2235
same,Results in α7+/− β-galactosidase assay,α7 integrin promoter; 40 uM,−0.5821
N#Cc1nc(COc2ccccc2)oc1N1CCCC1 [drawing 674],Results in α7+/− β-galactosidase assay,α7 integrin promoter; 0.5 uM,0.189
same,Results in α7+/− β-galactosidase assay,α7 integrin promoter; 1 uM,0.0825
same,Results in α7+/− β-galactosidase assay,α7 integrin promoter; 5 uM,−0.1343
same,Results in α7+/− β-galactosidase assay,α7 integrin promoter; 10 uM,−0.1744
same,Results in α7+/− β-galactosidase assay,α7 integrin promoter; 20 uM,−0.09766
same,Results in α7+/− β-galactosidase assay,α7 integrin promoter; 40 uM,−0.3419
O=CN1CCN(C(=O)CC(c2ccccc2)c2cc(Br)ccc2O)CC1 (stereo not drawn) [drawing 487],"Results in a α7+/− β-galactosidase assay, Myotubes, 0.5 uM",α7 integrin promoter,−0.0643
same,"Results in a α7+/− β-galactosidase assay, Myotubes, 1 uM",α7 integrin promoter,−0.1354
same,"Results in a α7+/− β-galactosidase assay, Myotubes, 5 uM",α7 integrin promoter,0.1295
same,"Results in a α7+/− β-galactosidase assay, Myotubes, 10 uM",α7 integrin promoter,−0.2355
same,"Results in a α7+/− β-galactosidase assay, Myotubes, 20 uM",α7 integrin promoter,−0.0629
same,"Results in a α7+/− β-galactosidase assay, Myotubes, 40 uM",α7 integrin promoter,−0.1726
Cc1noc(C)c1COc1ccc(C(=O)NCCc2ccccn2)cc1 [drawing 594],Results in α7+/− β-galactosidase assay,α7 integrin promoter; 0.5 uM,−0.1523
same,Results in α7+/− β-galactosidase assay,α7 integrin promoter; 1 uM,−0.1552
same,Results in α7+/− β-galactosidase assay,α7 integrin promoter; 5 uM,−0.01736
same,Results in α7+/− β-galactosidase assay,α7 integrin promoter; 10 uM,0.1691
same,Results in α7+/− β-galactosidase assay,α7 integrin promoter; 20 uM,−0.127
same,Results in α7+/− β-galactosidase assay,α7 integrin promoter; 40 uM,−0.3226
